Assay results from patent US8580806B2, “Salts of 4-methyl N-[3-(4-methyl-imidazol-1-yl)-5-trifluoromethyl-phenyl]-3-(4-pyridin-3-yl-pyrimidin-2-ylamino)-benzamide” (Novartis AG, priority 2005, dated 2013).

Key:
[1] = Hygroscopicity by TGA after one day at ambient temperature and 93% relative humidity; type: physicochemical; conditions: ambient temperature, listed as Control - free base form B
Protocol: The hygroscopicity of the salts of the invention was determined by TGA after one day at ambient temperature and 93% relative humidity.

[2] = pH 3.0 buffer, ambient temperature, at least 20 hours; listed as Control - free base form B
Protocol: The solubility of the salts of the invention was determined in pH 6.8, pH 3.0 and pH 1.0 buffers by suspending 1-5 mg of each salt in 10 mL of corresponding aqueous solution. The samples were allowed to equilibrate at ambient temperature for at least 20 hours for pH 6.8 and 3.0 or about 5 hours for pH 1.0. The supernatant was filtered and used for the solubility determination by UV-VIS spectroscopy.

[3] = Solid state stability: heat, humidity, xenon light (Table 15); type: physicochemical
[4] = pH of 1% solution or suspension in water; type: physicochemical; conditions: 1% in water; listed as Free base form B
[5] = pKa values of the free base; type: physicochemical; conditions: two values
Protocol: In a second step of the present inventive method, the 4-methyl-N-[3-(4-methyl-imidazol-1-yl)-5-trifluoromethyl-phenyl]-3-(4-pyridin-3-yl-pyrimidin-2-ylamino)-benzamide free base is treated with an appropriate acid of the formula HB. […] Suitable acids include, without limitation, inorganic acids such as hydrochloric acid, phosphoric acid, sulfuric acid, and sulfonic acid and organic acids such as methane sulfonic acid, ethane sulfonic acid, benzene sulfonic acid, p-toluene sulfonic acid, citric acid, fumaric acid, gentisic acid, malonic acid, maleic acid, and tartaric acid.

[6] = Intrinsic Dissolution Rate (rotating disk method); type: physicochemical; conditions: 37° C., 200 rpm
Protocol: Intrinsic Dissolution Rate (IDR): Dissolution rate measurements were performed at 37° C. using the rotating disk method (VanKell Instrument). A single rotation speed of 200 rpm was used. For IDR in 0.1 N HCl, an 800 mL volume, and for IDE in water, a 200 mL volume were used. The solution was continuously pumped through a UV measuring cell and recycled to the dissolution vessel.

[7] = Stability of solutions or suspensions (Table 15); type: physicochemical
[8] = Solid state, 1 week 80° C., 75% relative humidity, 30% in mixture 1
[9] = Solid state, 1 week 80° C., 75% relative humidity, 30% in mixture 2
[10] = Solid state, 1 week 80° C., 75% relative humidity, Bulk (HPLC)
[11] = Solid state, 1 week 80° C., tight container, 30% in mixture 1
[12] = Solid state, 1 week 80° C., tight container, 30% in mixture 2
[13] = Solid state, 1 week 80° C., tight container, Bulk (HPLC)
[14] = Xenon light (approximately 200 kLuxh), Bulk (HPLC)
[15] = 0.1% solutions or suspensions, 1 week at 80° C., Acetonitrile
[16] = 0.1% solutions or suspensions, 1 week at 80° C., Ethanol
[17] = 0.1% solutions or suspensions, 1 week at 80° C., Methanol
[18] = 0.1% solutions or suspensions, 1 week at 80° C., Water (pH measured: 4.74; pH measured for HCl salt: 4.22)
[19] = 0.1% solutions or suspensions, 1 week at 80° C., pH 1 (pH measured: 1.26)
[20] = 0.1% solutions or suspensions, 1 week at 80° C., pH 2 (pH measured: 2.00)
[21] = 0.1% solutions or suspensions, 1 week at 80° C., pH 3 (pH measured: 2.94)
[22] = 0.1% solutions or suspensions, 1 week at 80° C., pH 5 (pH measured: 5.01)
[23] = 0.1% solutions or suspensions, 1 week at 80° C., pH 7 (pH measured: 6.02)
[24] = 0.1% solutions or suspensions, 1 week at 80° C., pH 9 (pH measured: 8.92)
[25] = 0.1% solutions or suspensions, 1 week at 80° C., pH 11 (pH measured: 10.86)
[26] = 0.1% solutions or suspensions, PH 1, 1 week @ 50° C.
[27] = 2% solutions or suspensions, 1 day at room temperature, 0.5% CMC
[28] = 2% solutions or suspensions, 1 day at room temperature, 0.5% HPMC cellulose 4000
[29] = 2% solutions or suspensions, 1 day at room temperature, 0.8% Tween 80
[30] = 5% solutions in DMSO, 1 day at room temperature, 1:100 dilution in pH 6.8 buffer

In the case of `Cc1cn(-c2cc(NC(=O)c3ccc(C)c(Nc4nccc(-c5cccnc5)n4)c3)cc(C(F)(F)F)c2)cn1` [Free base (form B), 4-methyl-N-[3-(4-methyl-imidazol-1-yl)-5-trifluoromethyl-phenyl]-3-(4-pyridin-3-yl-pyrimidin-2-ylamino)-benzamide], the “% moisture gain” value [1] is reported as 0.08%, the “Solubility at pH 3.0” value [2] is reported as 2.8 μg/mL and the “Bulk (XRPD)” value ([3]; Solid state, 1 week 80° C., 75% relative humidity) is reported as “No change”. The Assay [3, 8] was 99.38, the “Assay [% area]: bracketed % area” value [3, 8] was 100.00 % area and the Assay [3, 9] was 89.37. For the same compound, the “Assay [% area]: bracketed % area” value [3, 9] was 96.02 % area, the Assay [3, 10] was 99.97 and the “Assay [% area]: bracketed % area” value [3, 10] was 100.00 % area. The “Bulk (XRPD)” value ([3]; Solid state, 1 week 80° C., tight container) was “No change”, the Assay [3, 11] was 100.11 and the “Assay [% area]: bracketed % area” value [3, 11] was 100.00 % area. For the same compound, the Assay [3, 12] was 94.28, the “Assay [% area]: bracketed % area” value [3, 12] was 97.75 % area and the Assay [3, 13] was 99.77. The “Assay [% area]: bracketed % area” value [3, 13] was 100.00 % area, the “Bulk (XRPD)” value ([3]; Xenon light (approximately 200 kLuxh)) was “No change” and the Assay [3, 14] was 96.03. The “Assay [% area]: bracketed % area” value [3, 14] was 100.00 % area, the “pH of 1% solution or suspension in water” value [4] was 7.99 and the pKa [5] was 5.1. The Intrinsic dissolution rate ([6]; Water, listed as Free base form B) was 0.0013 mg min^−1 cm^−2, the Intrinsic dissolution rate ([6]; pH 1 (0.1N HCl)) was 0.17 mg min^−1 cm^−2 and the Appearance [7, 15] was “A*”. The Assay [7, 15] was 100.16, the “Assay [% area]: bracketed % area” value [7, 15] was 100.00 % area and the Appearance [7, 16] was “A*”. The Assay [7, 16] was 99.85, the “Assay [% area]: bracketed % area” value [7, 16] was 99.96 % area and the Appearance [7, 17] was “A*”. The Assay [7, 17] was 98.04, the “Assay [% area]: bracketed % area” value [7, 17] was 98.90 % area and the Appearance [7, 18] was “A↓”. The Assay [7, 18] was 101.93, the “Assay [% area]: bracketed % area” value [7, 18] was 100.00 % area and the Appearance [7, 19] was “A*”. For the same compound, the Assay [7, 19] was 50.22, the “Assay [% area]: bracketed % area” value [7, 19] was 45.31 % area and the Appearance [7, 20] was “B↓”. The Assay [7, 20] was 96.00, the “Assay [% area]: bracketed % area” value [7, 20] was 94.86 % area and the Appearance [7, 21] was “A↓”. For the same compound, the Assay [7, 21] was 102.19, the “Assay [% area]: bracketed % area” value [7, 21] was 100.00 % area and the Appearance [7, 22] was “A↓”. For the same compound, the Assay [7, 22] was 100.80, the “Assay [% area]: bracketed % area” value [7, 22] was 100.00 % area and the Appearance [7, 23] was “A↓”. For the same compound, the Assay [7, 23] was 100.14, the “Assay [% area]: bracketed % area” value [7, 23] was 100.00 % area and the Appearance [7, 24] was “A↓”. The Assay [7, 24] was 99.19, the “Assay [% area]: bracketed % area” value [7, 24] was 100.00 % area and the Appearance [7, 25] was “A↓”. The Assay [7, 25] was 100.50, the “Assay [% area]: bracketed % area” value [7, 25] was 100.00 % area and the Appearance [7, 26] was “A*”. For the same compound, the Assay [7, 26] was 94.01, the “Assay [% area]: bracketed % area” value [7, 26] was 93.44 % area and the Appearance [7, 27] was “A↓”. The Assay [7, 27] was 98.28, the “Assay [% area]: bracketed % area” value [7, 27] was 100.00 % area and the Appearance [7, 28] was “A↓”. For the same compound, the Assay [7, 28] was 98.27, the “Assay [% area]: bracketed % area” value [7, 28] was 100,00 % area and the Appearance [7, 29] was “A↓”. For the same compound, the Assay [7, 29] was 98.78, the “Assay [% area]: bracketed % area” value [7, 29] was 100.00 % area and the Appearance [7, 30] was “A↓”. For the same compound, the Assay [7, 30] was 96.98, the “Assay [% area]: bracketed % area” value [7, 30] was 100.00 % area and the Assay ([7]; Unstressed) was 100.99. The “Assay [% area]: bracketed % area” value ([7]; Unstressed) was 100.00 % area.
